{"source": "patent US20220378706A1", "about": "“PHARMACEUTICAL COMPOSITION COMPRISING PDE9 INHIBITOR” (Eisai R&D Management Co., Ltd., priority 2017, published 2022)", "test": "Single dose clinical study: plasma Compound A pharmacokinetics", "format": "in vivo, human", "conditions": "for AUC(0-inf) / Cmax / Vd/F / half-life / Tmax / AUC(0-t): human, po; for AUC(0-inf): read-out: AUC(0-inf) GM; for Tmax: read-out: tmax Median; for tlag Median (Min, Max): Part B 100 mg cohort", "protocol": "This was a single center, single dose, randomized, double blind, placebo controlled study in healthy subjects. It consisted of 4 parts: Parts A, B, C, and D. Each of the four study parts had 2 phases: Prerandomization Phase and Randomization Phase. The Prerandomization Phase lasted up to 30 days and consisted of a Screening Period and a Baseline Period, during which each subject's study eligibility was determined and baseline assessments were performed.\nIn Part A, there were 8 sequential cohorts of healthy adult subjects (18-50 years of age). Subjects were randomly assigned to Compound A or placebo in a ratio of 6:2, respectively. Subjects in the Compound A cohorts were treated with single ascending doses of 10, 25, 50, 100, 200, 400, 800, or 1200 mg.\nIn Part B, there were 4 cohorts of healthy adult subjects (18-50 years of age). There were 8 subjects in Cohort 1, with 6 subjects randomly assigned to receive single doses of Compound A (400 mg) and 2 subjects randomly assigned to receive placebo. There were 7 subjects in Cohort 2 and Cohort 3, each with 6 subjects randomly assigned to receive single doses of Compound A (100 and 200 mg, respectively) and 1 subject randomly assigned to receive placebo. The dose of 100 mg selected in Cohort 2 was based on preliminary analysis of Cohort 1 data; this dose was predicted from PK/PD modeling to achieve a sustained CSF cGMP increase from baseline of approximately 200% when administered to steady state, and thereby provided a potentially therapeutic dose for further evaluation in future studies. There were 7 subjects in Cohort 4, with 6 subjects randomly assigned to receive a single dose of Compound A (50 mg [n=3] or 75 mg [n=3]) and 1 subject randomly assigned to receive placebo. The doses for Cohorts 3 and 4 were selected based on PK/PD modeling of the data in Cohorts 1 and 2.\nSubjects in Cohort 2 who had received Compound A 100 mg or placebo under fasted conditions (1st Treatment Period) also participated in an evaluation of food effect on the PK of Compound A (2nd Treatment Period). After a washout period of at least 13 days (or 5 half-lives of Compound A, whichever was longer), subjects were admitted to the clinic for baseline assessments (2nd Baseline Period) and then received a single dose of the same treatment (Compound A 100 mg or placebo) after consuming a high fat and high calorie meal over 30 minutes. Blood PK samples were collected at prespecified time points. Safety evaluations were also assessed. CSF was not collected for PD evaluation during the 2nd Treatment Period. A Follow Up Visit occurred on Day 10 of Treatment Period 2.\nIn Part C, there was 1 cohort of 8 healthy elderly subjects (65 to 85 years of age) randomly assigned to receive a single dose of Compound A 100 mg or placebo in a ratio of 6:2, respectively.\nIn Part D, 3 cohorts of healthy adult Japanese subjects were randomized in parallel. There were 7 subjects in each cohort and subjects were randomly assigned to receive single doses of Compound A (25, 100, or 400 mg) or placebo in a ratio of 6:1, respectively.\nBlood samples for determination of plasma Compound A concentrations were collected from predose to 216 hours postdose. On Day 1, blood PK samples were collected at predose and postdose 0.5 (30 minutes), 1, 1.5, 2, 3, 4, 5, 6, 8, 12, and 18 hours. Thereafter, samples were collected on Day 2 (24 and 36 hours postdose), Day 3 (48 hours postdose), Day 4 (72 hours postdose), Day 5 (96 hours postdose), Day 6 (120 hours postdose), Day 7 (144 hours postdose), and Day 10 (216 hours postdose).\nBlood samples for determination of plasma Compound A concentrations were collected from predose to 216 hours postdose. For all cohorts, blood PK samples were collected on Day 1 at predose and postdose at 0.5 (30 minutes), 1, 1.5, 2, 3, 4, 5, 6, 8, 10, 12, and 18 hours. […]", "key": {"[1]": {"conditions": "plasma, 400 mg, plasma, Non-Japanese Subjects (Parts A,B), single oral 400 mg"}, "[2]": {"conditions": "plasma, 400 mg, plasma, healthy adults (Parts A,B), single oral 400 mg, fasted"}, "[3]": {"conditions": "plasma, 800 mg, plasma, healthy adults (Parts A,B), single oral 800 mg, fasted"}, "[4]": {"conditions": "plasma, 1200 mg, plasma, healthy adults (Parts A,B), single oral 1200 mg, fasted"}, "[5]": {"conditions": "plasma, healthy adults (Parts A,B), single oral 10 mg, fasted"}, "[6]": {"conditions": "plasma, healthy adults (Parts A,B), single oral 25 mg, fasted"}, "[7]": {"conditions": "plasma, healthy adults (Parts A,B), single oral 50 mg, fasted"}, "[8]": {"conditions": "plasma, healthy adults (Parts A,B), single oral 75 mg, fasted"}, "[9]": {"conditions": "plasma, healthy adults (Parts A,B), single oral 100 mg, fasted"}, "[10]": {"conditions": "plasma, healthy adults (Parts A,B), single oral 200 mg, fasted"}, "[11]": {"conditions": "plasma, healthy adults (Parts A,B), single oral 400 mg, fasted"}, "[12]": {"conditions": "plasma, healthy adults (Parts A,B), single oral 800 mg, fasted"}, "[13]": {"conditions": "plasma, healthy adults (Parts A,B), single oral 1200 mg, fasted"}}, "note": "“And” between values parts separate entries of the source, which are not always exact repeats. Identical values can stand only once. Like-named read-outs stand apart in the source and are kept apart here.", "data": [{"smiles": "COc1ncc(C)c(-c2ccc3c(c2)[nH]c(=O)c2cnn([C@H]4CCOC4)c23)c1C", "note": "[Compound A, (S)-7-(2-methoxy-3,5-dimethylpyridin-4-yl)-1-(tetrahydrofuran-3-yl)-1H-pyrazolo[4,3-c]quin olin-4(5H)-one]", "values": [{"measurement": "AUC(0-inf)", "setting": "[1]", "result": 35800, "unit": "ng·h/mL"}, {"measurement": "Cmax", "setting": "plasma, 400 mg, plasma, Non-Japanese Subjects (Parts A,B), single oral 400 mg, read-out: Cmax GM (% CV)", "result": 827, "unit": "ng/mL"}, {"measurement": "Vd/F", "setting": "plasma, 400 mg, plasma, Non-Japanese Subjects (Parts A,B), single oral 400 mg, read-out: Vz/F GM (% CV)", "result": 511, "unit": "L"}, {"measurement": "half-life", "setting": "plasma, 400 mg, plasma, Non-Japanese Subjects (Parts A,B), single oral 400 mg, read-out: t1/2 Mean (SD) (converted)", "result": 34.5, "unit": "h"}, {"measurement": "Tmax", "setting": "[1]", "result": 3, "unit": "h"}, {"measurement": "AUC(0-t)", "setting": "plasma, 400 mg, plasma, healthy adults (Parts A,B), single oral 400 mg, fasted, read-out: AUC(0-24 h) GM", "result": 12500, "unit": "ng·h/mL"}, {"measurement": "AUC(0-t)", "setting": "plasma, 400 mg, plasma, healthy adults (Parts A,B), single oral 400 mg, fasted, read-out: AUC(0-30 h) GM", "result": 15200, "unit": "ng·h/mL"}, {"measurement": "AUC(0-t)", "setting": "plasma, 400 mg, plasma, healthy adults (Parts A,B), single oral 400 mg, fasted, read-out: AUC(0-72 h) GM", "result": 27000, "unit": "ng·h/mL"}, {"measurement": "AUC(0-inf)", "setting": "[2]", "result": 36300, "unit": "ng·h/mL"}, {"measurement": "AUC(0-t)", "setting": "plasma, 400 mg, plasma, healthy adults (Parts A,B), single oral 400 mg, fasted, read-out: AUC(0-t) GM", "result": 35500, "unit": "ng·h/mL"}, {"measurement": "Cmax", "setting": "plasma, 400 mg, plasma, healthy adults (Parts A,B), single oral 400 mg, fasted, read-out: Cmax GM", "result": 880, "unit": "ng/mL"}, {"measurement": "Vd/F", "setting": "plasma, 400 mg, plasma, healthy adults (Parts A,B), single oral 400 mg, fasted, read-out: Vz/F GM", "result": 493, "unit": "L"}, {"measurement": "half-life", "setting": "plasma, 400 mg, plasma, healthy adults (Parts A,B), single oral 400 mg, fasted, read-out: t1/2 Mean (converted)", "result": 33.2, "unit": "h"}, {"measurement": "Tmax", "setting": "[2]", "result": 2.5, "unit": "h"}, {"measurement": "AUC(0-t)", "setting": "plasma, 800 mg, plasma, healthy adults (Parts A,B), single oral 800 mg, fasted, read-out: AUC(0-24 h) GM", "result": 29200, "unit": "ng·h/mL"}, {"measurement": "AUC(0-t)", "setting": "plasma, 800 mg, plasma, healthy adults (Parts A,B), single oral 800 mg, fasted, read-out: AUC(0-30 h) GM", "result": 34500, "unit": "ng·h/mL"}, {"measurement": "AUC(0-t)", "setting": "plasma, 800 mg, plasma, healthy adults (Parts A,B), single oral 800 mg, fasted, read-out: AUC(0-72 h) GM", "result": 54700, "unit": "ng·h/mL"}, {"measurement": "AUC(0-inf)", "setting": "[3]", "result": 65000, "unit": "ng·h/mL"}, {"measurement": "AUC(0-t)", "setting": "plasma, 800 mg, plasma, healthy adults (Parts A,B), single oral 800 mg, fasted, read-out: AUC(0-t) GM", "result": 64300, "unit": "ng·h/mL"}, {"measurement": "Cmax", "setting": "plasma, 800 mg, plasma, healthy adults (Parts A,B), single oral 800 mg, fasted, read-out: Cmax GM", "result": 2570, "unit": "ng/mL"}, {"measurement": "Vd/F", "setting": "plasma, 800 mg, plasma, healthy adults (Parts A,B), single oral 800 mg, fasted, read-out: Vz/F GM", "result": 438, "unit": "L"}, {"measurement": "half-life", "setting": "plasma, 800 mg, plasma, healthy adults (Parts A,B), single oral 800 mg, fasted, read-out: t1/2 Mean (converted)", "result": 25.2, "unit": "h"}, {"measurement": "Tmax", "setting": "[3]", "result": 3.55, "unit": "h"}, {"measurement": "AUC(0-t)", "setting": "plasma, 1200 mg, plasma, healthy adults (Parts A,B), single oral 1200 mg, fasted, read-out: AUC(0-24 h) GM", "result": 28500, "unit": "ng·h/mL"}, {"measurement": "AUC(0-t)", "setting": "plasma, 1200 mg, plasma, healthy adults (Parts A,B), single oral 1200 mg, fasted, read-out: AUC(0-30 h) GM", "result": 34800, "unit": "ng·h/mL"}, {"measurement": "AUC(0-t)", "setting": "plasma, 1200 mg, plasma, healthy adults (Parts A,B), single oral 1200 mg, fasted, read-out: AUC(0-72 h) GM", "result": 60600, "unit": "ng·h/mL"}, {"measurement": "AUC(0-inf)", "setting": "[4]", "result": 79700, "unit": "ng·h/mL"}, {"measurement": "AUC(0-t)", "setting": "plasma, 1200 mg, plasma, healthy adults (Parts A,B), single oral 1200 mg, fasted, read-out: AUC(0-t) GM", "result": 78400, "unit": "ng·h/mL"}, {"measurement": "Cmax", "setting": "plasma, 1200 mg, plasma, healthy adults (Parts A,B), single oral 1200 mg, fasted, read-out: Cmax GM", "result": 1780, "unit": "ng/mL"}, {"measurement": "Vd/F", "setting": "plasma, 1200 mg, plasma, healthy adults (Parts A,B), single oral 1200 mg, fasted, read-out: Vz/F GM", "result": 666, "unit": "L"}, {"measurement": "half-life", "setting": "plasma, 1200 mg, plasma, healthy adults (Parts A,B), single oral 1200 mg, fasted, read-out: t1/2 Mean (converted)", "result": 31.9, "unit": "h"}, {"measurement": "Tmax", "setting": "[4]", "result": 3.02, "unit": "h"}, {"measurement": "tlag Median (Min, Max)", "setting": "plasma, single oral 100 mg, Fasted", "result": "0 (0.00, 0.00) h"}, {"measurement": "tlag Median (Min, Max)", "setting": "plasma, single oral 100 mg, Fed (high-fat meal)", "result": "0.49 (0.00, 0.88) h"}, {"measurement": "CL/F GM", "setting": "[5]", "result": 5.41, "unit": "L/h"}, {"measurement": "tlag Median", "setting": "[5]", "result": 0.50, "unit": "h"}, {"measurement": "CL/F GM", "setting": "[6]", "result": 5.76, "unit": "L/h"}, {"measurement": "tlag Median", "setting": "[6]", "result": 0.00, "unit": "h"}, {"measurement": "CL/F GM", "setting": "[7]", "result": 6.33, "unit": "L/h"}, {"measurement": "tlag Median", "setting": "[7]", "result": 0.00, "unit": "h"}, {"measurement": "CL/F GM", "setting": "[8]", "result": 7.57, "unit": "L/h"}, {"measurement": "tlag Median", "setting": "[8]", "result": 0.00, "unit": "h"}, {"measurement": "AUC(0-inf) GM", "setting": "[9]", "result": "15000 (20.0) h × ng/mL"}, {"measurement": "CL/F GM", "setting": "[9]", "result": "6.66 L/h and 6.66 (20.1) L/h"}, {"measurement": "Cmax GM", "setting": "[9]", "result": "373 (19.8) ng/mL"}, {"measurement": "t1/2 Mean", "setting": "[9]", "result": "28.6 (6.73) h"}, {"measurement": "tlag Median", "setting": "[9]", "result": 0.00, "unit": "h"}, {"measurement": "CL/F GM", "setting": "[10]", "result": 8.93, "unit": "L/h"}, {"measurement": "tlag Median", "setting": "[10]", "result": 0.00, "unit": "h"}, {"measurement": "CL/F GM", "setting": "[11]", "result": 11.0, "unit": "L/h"}, {"measurement": "tlag Median", "setting": "[11]", "result": 0.00, "unit": "h"}, {"measurement": "CL/F GM", "setting": "[12]", "result": 12.3, "unit": "L/h"}, {"measurement": "tlag Median", "setting": "[12]", "result": 0.00, "unit": "h"}, {"measurement": "CL/F GM", "setting": "[13]", "result": 15.1, "unit": "L/h"}, {"measurement": "tlag Median", "setting": "[13]", "result": 0.00, "unit": "h"}, {"measurement": "time to quantifiable plasma concentrations postdose (most subjects)", "setting": "single doses of 10 to 1200 mg", "result": "≤ 0.5", "unit": "h"}]}]}
